Laboratory results: ChEMBL document CHEMBL3431459, “Roche carnitine palmitoyltransferase modulator screening data (supplementary data associated with the publication CHEMBL2216752)”
In brackets after ≈: the same amount, converted by molar mass.

Legend:
[1] = SUPPLEMENTARY: Lipophilicity (log D) Determination by high-throughput shake-flask; assay type: physicochemical; settings: octanol/water
[2] = target: T1, Carnitine O-palmitoyltransferase 1, muscle isoform (Homo sapiens, UniProt Q92523); assay: SUPPLEMENTARY: Inhibition of Carnitine palmitoyltransferase 1, muscle isoform; set-up: species or system Muscle tissue
T1 sequence (Q92523 whole entry): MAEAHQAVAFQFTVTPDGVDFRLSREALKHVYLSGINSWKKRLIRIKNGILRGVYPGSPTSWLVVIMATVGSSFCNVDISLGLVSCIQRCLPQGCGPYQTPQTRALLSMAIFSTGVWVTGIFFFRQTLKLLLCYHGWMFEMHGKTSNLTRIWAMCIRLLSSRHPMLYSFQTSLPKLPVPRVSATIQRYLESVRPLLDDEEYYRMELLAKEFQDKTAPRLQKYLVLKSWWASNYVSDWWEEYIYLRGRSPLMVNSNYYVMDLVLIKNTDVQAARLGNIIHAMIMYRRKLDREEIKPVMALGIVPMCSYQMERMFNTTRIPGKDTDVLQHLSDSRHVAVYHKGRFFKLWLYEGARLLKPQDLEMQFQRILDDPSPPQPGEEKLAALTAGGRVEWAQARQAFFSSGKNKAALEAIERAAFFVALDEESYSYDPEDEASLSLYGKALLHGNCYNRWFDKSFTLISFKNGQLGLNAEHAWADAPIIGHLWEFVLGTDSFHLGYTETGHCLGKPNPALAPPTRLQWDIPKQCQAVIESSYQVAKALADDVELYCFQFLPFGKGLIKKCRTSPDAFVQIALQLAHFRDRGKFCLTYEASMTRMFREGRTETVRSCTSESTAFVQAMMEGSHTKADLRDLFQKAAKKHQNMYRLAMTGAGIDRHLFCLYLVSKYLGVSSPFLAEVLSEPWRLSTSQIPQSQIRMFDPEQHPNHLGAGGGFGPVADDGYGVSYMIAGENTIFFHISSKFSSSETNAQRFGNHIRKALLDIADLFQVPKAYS

[3] = SUPPLEMENTARY: Lyophilisation Solubility Assay (LYSA); assay type: physicochemical; settings: read-out: Kinetic_solubility
[4] = target: T2, Carnitine O-palmitoyltransferase 1, liver isoform (Homo sapiens, UniProt P50416); assay: (§1) SUPPLEMENTARY: Inhibition of Carnitine palmitoyltransferase 1, liver isoform
T2 sequence (P50416 whole entry): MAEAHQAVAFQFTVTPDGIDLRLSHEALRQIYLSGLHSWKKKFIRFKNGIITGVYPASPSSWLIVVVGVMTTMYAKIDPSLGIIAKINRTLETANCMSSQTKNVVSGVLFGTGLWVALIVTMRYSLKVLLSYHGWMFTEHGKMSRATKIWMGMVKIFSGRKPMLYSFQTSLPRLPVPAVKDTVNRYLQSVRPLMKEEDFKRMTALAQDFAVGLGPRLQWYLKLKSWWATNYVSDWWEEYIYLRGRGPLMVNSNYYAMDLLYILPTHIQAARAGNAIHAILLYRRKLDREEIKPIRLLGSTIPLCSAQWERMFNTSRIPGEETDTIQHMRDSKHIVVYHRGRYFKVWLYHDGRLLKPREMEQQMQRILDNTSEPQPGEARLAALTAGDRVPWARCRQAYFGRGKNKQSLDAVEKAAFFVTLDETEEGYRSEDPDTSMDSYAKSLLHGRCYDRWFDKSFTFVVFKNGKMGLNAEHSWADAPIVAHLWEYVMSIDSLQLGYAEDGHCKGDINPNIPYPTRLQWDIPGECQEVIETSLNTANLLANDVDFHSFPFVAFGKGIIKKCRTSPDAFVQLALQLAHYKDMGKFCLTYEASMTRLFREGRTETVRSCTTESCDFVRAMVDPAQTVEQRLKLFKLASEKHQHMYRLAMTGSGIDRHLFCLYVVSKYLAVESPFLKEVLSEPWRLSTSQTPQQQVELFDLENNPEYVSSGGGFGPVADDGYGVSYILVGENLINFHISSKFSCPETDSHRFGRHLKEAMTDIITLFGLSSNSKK

[5] = target: T3, Carnitine O-palmitoyltransferase 1, liver isoform (Rattus norvegicus, UniProt P32198); assay: as §1
T3 sequence (P32198 whole entry): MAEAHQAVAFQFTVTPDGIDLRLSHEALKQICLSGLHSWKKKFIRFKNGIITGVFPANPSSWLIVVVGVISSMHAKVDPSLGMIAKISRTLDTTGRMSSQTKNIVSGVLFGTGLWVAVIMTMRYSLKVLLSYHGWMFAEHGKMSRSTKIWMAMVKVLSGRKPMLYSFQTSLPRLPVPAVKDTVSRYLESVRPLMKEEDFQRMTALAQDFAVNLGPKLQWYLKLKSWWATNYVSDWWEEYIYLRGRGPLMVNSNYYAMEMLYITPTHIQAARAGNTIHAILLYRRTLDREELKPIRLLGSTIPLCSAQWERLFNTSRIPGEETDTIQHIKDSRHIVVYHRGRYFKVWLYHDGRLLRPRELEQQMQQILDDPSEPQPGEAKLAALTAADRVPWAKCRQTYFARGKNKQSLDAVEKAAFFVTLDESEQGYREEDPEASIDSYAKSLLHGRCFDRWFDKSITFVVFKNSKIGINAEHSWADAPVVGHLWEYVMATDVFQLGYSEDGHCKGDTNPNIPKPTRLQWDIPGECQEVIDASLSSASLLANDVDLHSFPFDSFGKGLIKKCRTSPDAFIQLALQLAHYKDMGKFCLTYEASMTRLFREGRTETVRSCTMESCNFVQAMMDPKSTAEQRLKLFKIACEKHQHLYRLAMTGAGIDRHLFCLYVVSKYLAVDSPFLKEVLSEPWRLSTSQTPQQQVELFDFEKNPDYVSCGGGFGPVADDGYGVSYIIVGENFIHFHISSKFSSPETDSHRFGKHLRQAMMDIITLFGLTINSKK

[6] = SUPPLEMENTARY: PAMPA permeability assay; assay type: physicochemical; settings: read-out: Permeability
[7] = target: T4, Carnitine O-palmitoyltransferase 2, mitochondrial (Homo sapiens, UniProt P23786); assay: (§2) SUPPLEMENTARY: Inhibition of Carnitine palmitoyltransferase 2
T4 sequence (P23786 whole entry): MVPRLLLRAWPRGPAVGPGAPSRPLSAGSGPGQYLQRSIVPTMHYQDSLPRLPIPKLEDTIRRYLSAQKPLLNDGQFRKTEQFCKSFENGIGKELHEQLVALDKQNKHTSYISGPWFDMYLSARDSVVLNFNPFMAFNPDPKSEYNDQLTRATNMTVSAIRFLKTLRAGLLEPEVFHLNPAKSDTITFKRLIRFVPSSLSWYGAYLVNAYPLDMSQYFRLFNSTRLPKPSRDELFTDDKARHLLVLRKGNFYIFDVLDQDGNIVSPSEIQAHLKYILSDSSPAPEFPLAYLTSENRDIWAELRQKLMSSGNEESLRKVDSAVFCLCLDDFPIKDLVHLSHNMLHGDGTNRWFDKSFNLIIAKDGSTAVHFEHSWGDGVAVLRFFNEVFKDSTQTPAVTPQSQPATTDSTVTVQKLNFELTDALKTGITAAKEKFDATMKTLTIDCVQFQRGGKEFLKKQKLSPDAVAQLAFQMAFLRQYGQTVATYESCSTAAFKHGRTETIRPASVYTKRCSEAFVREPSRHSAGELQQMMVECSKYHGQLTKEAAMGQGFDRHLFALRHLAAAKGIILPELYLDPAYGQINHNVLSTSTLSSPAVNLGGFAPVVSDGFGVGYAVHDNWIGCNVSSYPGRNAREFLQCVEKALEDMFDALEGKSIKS

[8] = target: T5, Carnitine O-palmitoyltransferase 2, mitochondrial (Rattus norvegicus, UniProt P18886); assay: as §2
T5 sequence (P18886 whole entry): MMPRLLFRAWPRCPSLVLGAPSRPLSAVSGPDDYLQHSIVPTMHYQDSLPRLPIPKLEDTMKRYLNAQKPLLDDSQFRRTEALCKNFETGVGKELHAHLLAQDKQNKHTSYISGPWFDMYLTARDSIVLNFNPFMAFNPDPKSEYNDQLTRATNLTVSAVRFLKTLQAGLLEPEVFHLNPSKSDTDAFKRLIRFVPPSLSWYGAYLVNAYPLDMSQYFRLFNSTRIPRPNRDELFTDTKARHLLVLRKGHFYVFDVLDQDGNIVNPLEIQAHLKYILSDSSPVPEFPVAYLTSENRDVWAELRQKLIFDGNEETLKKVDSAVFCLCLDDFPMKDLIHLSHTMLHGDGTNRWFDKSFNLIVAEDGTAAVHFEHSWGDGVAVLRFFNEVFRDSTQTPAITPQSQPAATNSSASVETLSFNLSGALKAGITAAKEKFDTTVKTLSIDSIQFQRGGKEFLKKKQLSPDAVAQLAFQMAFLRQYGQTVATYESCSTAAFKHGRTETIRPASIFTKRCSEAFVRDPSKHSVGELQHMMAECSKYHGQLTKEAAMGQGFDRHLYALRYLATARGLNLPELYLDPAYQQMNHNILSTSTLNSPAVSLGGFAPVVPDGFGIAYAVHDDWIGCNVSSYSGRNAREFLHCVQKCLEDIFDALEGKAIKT

Compound	logD [1]	IC50 [2]	solubility kinetic [3]	IC50 [4]	IC50 [5]	Papp [6]	IC50 [7]	IC50 [8]
N#Cc1ccc(C#C[C@H]2CCCCN2C(=O)COc2ccccc2)cc1	3.56	> 100000 nM	1 µg/mL (≈ 2.9 µM)	164 nM	190 nM	0.61 ×10⁻⁶ cm/s	> 100000 nM	> 100000 nM
Cc1cc(-c2noc([C@H]3CCCCN3C(=O)COc3ccccc3)n2)no1	2.34	> 100000 nM	141 µg/mL (≈ 383 µM)	137 nM	611 nM	3.94 ×10⁻⁶ cm/s	> 100000 nM	> 100000 nM
COc1ccc(Cl)cc1S(=O)(=O)N(C)c1cc(C(=O)Nc2ncc(CC(=O)O)s2)cc2c1OCO2	-0.06	1210 nM	277 µg/mL (≈ 513 µM)	67.9 nM	38.5 nM	2.22 ×10⁻⁶ cm/s	> 100000 nM	> 100000 nM
COc1ccc(Cl)cc1S(=O)(=O)N(C)c1cc(C(=O)Nc2ccc(C(=O)O)cc2)cc2c1OCCO2	0.58	4050 nM	> 710 µg/mL	219 nM	249 nM	2.54 ×10⁻⁶ cm/s	20700 nM	29000 nM
CC(=O)Nc1cc(-c2nc([C@H]3CCCCN3C(=O)COc3ccccc3)no2)ccn1	2.54	> 100000 nM	113 µg/mL (≈ 268 µM)	50.9 nM	327 nM	5.4 ×10⁻⁶ cm/s	> 100000 nM	> 100000 nM
COc1ccc(Cl)cc1S(=O)(=O)N1CCOc2ccc(C(=O)Nc3ccc(C(=O)O)c(Cl)c3)cc21	0.12	3580 nM	> 716 µg/mL	248 nM	100 nM	1.45 ×10⁻⁶ cm/s	5130 nM	21000 nM
COc1ccc(Cl)cc1S(=O)(=O)N1CCSc2ccc(C(=O)Nc3ccc(CC(=O)O)cc3)cc21	0.61	792 nM	232 µg/mL (≈ 435 µM)	120 nM	155 nM	5.1 ×10⁻⁶ cm/s	> 100000 nM	> 100000 nM
O=C1COc2ccc(-c3noc([C@H]4CCCCN4C(=O)COc4ccccc4)n3)cc2N1	3.04	80800 nM	10 µg/mL (≈ 23 µM)	55.7 nM	69.4 nM	3.91 ×10⁻⁶ cm/s	18000 nM	> 100000 nM
O=C(COc1ccccc1)N1CCCC[C@@H]1c1nc(-c2ccc([N+](=O)[O-])s2)no1	> 3	> 100000 nM	< 1 µg/mL	223 nM	376 nM	4.39 ×10⁻⁶ cm/s	62300 nM	> 100000 nM
COc1ccc(Cl)cc1S(=O)(=O)N1CCOc2ccc(C(=O)Nc3ccc(CC(=O)O)cc3)cc21	0.11	827 nM	6 µg/mL (≈ 11.6 µM)	96.8 nM	70.2 nM	1.86 ×10⁻⁶ cm/s	> 100000 nM	> 100000 nM
COc1ccc(Cl)cc1Cc1c[nH]c2ccc(C(=O)Nc3ccc(CC(=O)O)cc3)cc12	0.72	491 nM	319 µg/mL (≈ 711 µM)	180 nM	147 nM	0.43 ×10⁻⁶ cm/s	> 100000 nM	> 100000 nM
COc1ccc(Cl)cc1S(=O)(=O)N(C)c1cc(C(=O)Nc2nc(CC(=O)O)cs2)cc2c1OCCO2	-0.18	1560 nM	382 µg/mL (≈ 690 µM)	80.5 nM	110 nM	1.28 ×10⁻⁶ cm/s	> 100000 nM	> 100000 nM
O=C1CN(c2cccc(-c3noc([C@H]4CCCCN4C(=O)COc4ccccc4)n3)c2)C(=O)N1	2.62	> 100000 nM	14 µg/mL (≈ 30.3 µM)	50.6 nM	103 nM	3.82 ×10⁻⁶ cm/s	50600 nM	> 100000 nM
COc1ccc(Cl)cc1S(=O)(=O)N1CCOc2ncc(C(=O)Nc3ccc(C(=O)O)cc3)cc21	0.2	> 100000 nM	47 µg/mL (≈ 93.3 µM)	328 nM	169 nM	0.74 ×10⁻⁶ cm/s	> 100000 nM	> 100000 nM
